Experimental data published in ChEMBL document CHEMBL1201862, “PubChem BioAssay data set” (2004).
Active and inactive are the calls of the source.

Assays:
[1] = target: T1, Fatty acid synthase (Homo sapiens, UniProt P49327); assay: FAS thioesterase domain inhibitors, dose response, biochemical, endpoint fluorescence intensity, uHTS hits (AID 624327); assay type: functional;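 note: fluorescence from hydrolysis of an O-methyl fluorescein acyl ester substrate by the enzyme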
[2] = target: T1, Fatty acid synthase; assay: FAS thioesterase domain inhibitors, dose response, biochemical, kinetic fluorescence intensity (AID 624326); assay type: functional;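 note: rate of fluorescence rise from hydrolysis of a fluorogenic O-methyl fluorescein ester substrate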
[3] = target: T2, Low molecular weight phosphotyrosine protein phosphatase (Homo sapiens, UniProt P24666); assay type: functional; conditions: read-out: IC50_Mean
T2 sequence (P24666 whole entry): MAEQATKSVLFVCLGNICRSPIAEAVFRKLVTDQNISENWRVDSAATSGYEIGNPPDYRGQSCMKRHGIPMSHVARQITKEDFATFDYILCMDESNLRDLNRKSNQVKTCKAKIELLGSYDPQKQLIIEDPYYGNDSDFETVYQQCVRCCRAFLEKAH

[4] = target: T2, Low molecular weight phosphotyrosine protein phosphatase; assay type: functional; conditions: read-out: IC50_Mean; remark: listed apart in the source
[5] = target: T3, Long-chain-fatty-acid--AMP ligase FadD28 (Mycobacterium tuberculosis, UniProt P9WQ59); assay: Fluorescence polarization aasay to screen for inhibitors that compete for the binding of FadD28 to a bisubstrate Measured in Biochemical System Using Plate Reader - 2147-01_Inhibitor_Dose_CherryPick_Activity.; assay type: functional, Mycobacterium tuberculosis H37Rv
T3 sequence (P9WQ59 whole entry): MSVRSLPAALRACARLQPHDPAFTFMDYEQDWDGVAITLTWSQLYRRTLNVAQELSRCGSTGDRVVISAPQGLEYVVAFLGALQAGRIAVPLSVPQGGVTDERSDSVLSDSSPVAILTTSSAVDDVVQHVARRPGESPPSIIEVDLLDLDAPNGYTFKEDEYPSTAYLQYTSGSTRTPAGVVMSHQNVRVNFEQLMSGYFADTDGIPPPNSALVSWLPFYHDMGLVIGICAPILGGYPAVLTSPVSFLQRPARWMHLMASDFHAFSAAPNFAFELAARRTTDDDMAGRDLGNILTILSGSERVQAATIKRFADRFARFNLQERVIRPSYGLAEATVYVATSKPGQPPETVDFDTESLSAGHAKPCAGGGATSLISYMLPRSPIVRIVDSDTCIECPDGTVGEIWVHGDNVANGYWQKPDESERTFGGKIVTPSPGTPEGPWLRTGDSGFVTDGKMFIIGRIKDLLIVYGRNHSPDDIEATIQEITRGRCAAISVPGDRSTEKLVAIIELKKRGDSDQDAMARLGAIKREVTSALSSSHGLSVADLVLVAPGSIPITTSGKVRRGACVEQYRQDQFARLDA

[6] = THP-1 cell cytotoxicity, dose response, cytotoxicity control for non-replicating M. tuberculosis project (AID 489025); assay type: functional
[7] = target: T4, Leucine aminopeptidase (Plasmodium falciparum 3D7, UniProt Q8IL11); assay: P. falciparum M17LAP inhibitors, primary screen, biochemical, fluorogenic H-Leu-NHMec substrate, 1536-well (AID 1619); assay type: functional
T4 sequence (Q8IL11 whole entry): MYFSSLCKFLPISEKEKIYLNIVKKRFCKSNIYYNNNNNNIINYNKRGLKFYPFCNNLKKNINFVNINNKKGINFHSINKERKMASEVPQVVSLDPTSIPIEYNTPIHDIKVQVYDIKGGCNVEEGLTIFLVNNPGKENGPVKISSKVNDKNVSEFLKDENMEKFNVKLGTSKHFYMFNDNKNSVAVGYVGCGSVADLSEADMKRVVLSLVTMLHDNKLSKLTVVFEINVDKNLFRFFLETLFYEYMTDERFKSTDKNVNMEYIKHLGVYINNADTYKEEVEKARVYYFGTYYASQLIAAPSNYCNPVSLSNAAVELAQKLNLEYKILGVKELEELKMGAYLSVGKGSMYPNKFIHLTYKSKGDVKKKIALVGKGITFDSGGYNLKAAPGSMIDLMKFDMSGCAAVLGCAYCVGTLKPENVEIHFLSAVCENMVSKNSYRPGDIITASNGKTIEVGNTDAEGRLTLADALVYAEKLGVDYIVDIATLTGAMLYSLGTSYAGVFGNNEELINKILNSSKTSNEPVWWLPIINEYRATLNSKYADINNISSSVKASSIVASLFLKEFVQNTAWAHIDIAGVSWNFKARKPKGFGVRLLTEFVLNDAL

[8] = target: Beta-galactosidase (Escherichia coli, UniProt Q8VNN2); assay: PubChem AID 485352; assay type: functional
[9] = target: T5, Carboxy-terminal domain RNA polymerase II polypeptide A small phosphatase 1 (Homo sapiens, UniProt Q9GZU7); assay: inhibitors of CTDSP1, concentration-response testing, biochemical assay, absorbance-based, actives from ultra-high-throughput screening (AID 540297); assay type: functional
T5 sequence (Q9GZU7 whole entry): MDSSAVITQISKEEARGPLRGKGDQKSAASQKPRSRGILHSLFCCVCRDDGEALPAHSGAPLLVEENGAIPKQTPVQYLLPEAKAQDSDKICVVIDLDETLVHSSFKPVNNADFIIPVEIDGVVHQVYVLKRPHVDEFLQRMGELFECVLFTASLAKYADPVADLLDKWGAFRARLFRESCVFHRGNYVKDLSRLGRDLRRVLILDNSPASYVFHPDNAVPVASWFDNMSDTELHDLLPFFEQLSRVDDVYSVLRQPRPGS

[10] = target: T6, Type-1 angiotensin II receptor (Homo sapiens, UniProt P30556); assay: AT1 receptor antagonists, dose response, selectivity assay for APJ receptor antagonist project, cell-based, uHTS hits (AID 463214); assay type: functional;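 note: antagonist potency against angiotensin II stimulated AT1 response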
T6 sequence (P30556 whole entry): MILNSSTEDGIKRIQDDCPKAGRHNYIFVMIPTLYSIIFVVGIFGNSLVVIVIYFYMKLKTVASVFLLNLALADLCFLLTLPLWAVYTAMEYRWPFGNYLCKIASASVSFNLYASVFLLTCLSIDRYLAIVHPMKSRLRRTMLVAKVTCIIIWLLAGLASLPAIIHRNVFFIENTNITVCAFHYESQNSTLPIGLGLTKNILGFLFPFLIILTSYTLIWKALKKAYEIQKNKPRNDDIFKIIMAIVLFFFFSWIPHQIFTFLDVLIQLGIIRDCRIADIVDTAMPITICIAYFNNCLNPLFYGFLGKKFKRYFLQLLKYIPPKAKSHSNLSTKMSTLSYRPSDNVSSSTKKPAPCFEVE

[11] = miR-122 activators in hepatoma reporter cells, dose response, cell-based, Huh7 psiCHECK-miR122, Renilla luciferase, cherry-picked (AID 651956); assay type: functional;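 note: huh7 hepatoma cells stably carrying a psiCHECK-2 miR-122 sensor plasmid; renilla luciferase signal reporting endogenous miR-122 activity after 48 h compound exposure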
[12] = target: Cytochrome P450 2C9 (Homo sapiens, UniProt P11712)
[13] = target: T7, Ubiquitin-conjugating enzyme E2 N (Homo sapiens, UniProt P61088); assay type: functional;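 note: Dose-response confirmation in a TR-FRET assay detecting UBC13-driven polyubiquitin chain formation, inhibition measured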
T7 sequence (P61088 whole entry): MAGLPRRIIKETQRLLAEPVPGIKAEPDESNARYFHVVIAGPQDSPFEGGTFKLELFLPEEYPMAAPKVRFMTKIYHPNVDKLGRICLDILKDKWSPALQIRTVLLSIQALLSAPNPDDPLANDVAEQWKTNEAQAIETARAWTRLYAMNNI

[14] = Luminescence Cell-Based Dose Retest to Confirm Inhibitors of Cancer Stem Cells. [Related pubchem assays (depositor defined):AID2717, AID2721]; assay type: functional; conditions: Homo sapiens
[15] = target: T8, Replicative DNA helicase DnaB (Mycobacterium tuberculosis, UniProt P9WMR3); assay: DnaB intein splicing inhibitors, dose response, biochemical, cell-free fluorescence (AID 449749); assay type: functional
T8 sequence (P9WMR3 whole entry): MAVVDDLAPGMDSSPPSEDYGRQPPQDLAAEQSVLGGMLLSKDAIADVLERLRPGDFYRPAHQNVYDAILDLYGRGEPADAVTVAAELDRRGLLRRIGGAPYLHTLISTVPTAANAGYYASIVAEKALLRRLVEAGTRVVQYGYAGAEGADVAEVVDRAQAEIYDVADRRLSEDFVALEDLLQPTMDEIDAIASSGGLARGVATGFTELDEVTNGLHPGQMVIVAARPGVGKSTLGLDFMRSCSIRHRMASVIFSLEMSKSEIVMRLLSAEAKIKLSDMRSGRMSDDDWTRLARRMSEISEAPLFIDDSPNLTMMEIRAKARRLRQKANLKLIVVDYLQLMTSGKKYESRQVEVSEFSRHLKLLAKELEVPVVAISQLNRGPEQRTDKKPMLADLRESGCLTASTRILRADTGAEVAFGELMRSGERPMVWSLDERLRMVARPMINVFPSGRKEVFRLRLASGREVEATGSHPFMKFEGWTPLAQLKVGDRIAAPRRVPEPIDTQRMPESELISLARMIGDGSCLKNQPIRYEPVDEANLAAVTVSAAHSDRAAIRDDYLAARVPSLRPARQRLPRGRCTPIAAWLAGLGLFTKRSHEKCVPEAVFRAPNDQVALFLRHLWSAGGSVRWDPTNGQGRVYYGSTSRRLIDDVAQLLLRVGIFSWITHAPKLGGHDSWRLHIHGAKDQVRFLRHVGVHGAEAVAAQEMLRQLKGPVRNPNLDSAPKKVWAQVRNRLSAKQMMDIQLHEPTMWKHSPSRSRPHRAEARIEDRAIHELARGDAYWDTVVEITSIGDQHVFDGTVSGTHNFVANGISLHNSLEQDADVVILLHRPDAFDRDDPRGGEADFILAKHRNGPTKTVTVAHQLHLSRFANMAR

[16] = target: T9, Protein RecA (Mycobacterium tuberculosis, UniProt P9WHJ3); assay: Fluorescence Cell-Free Homogeneous Dose Retest to Identify Inhibitors of RecA-Intein Splicing Activity. [Related pubchem assays (depositor defined):AID2097, AID2223, AID489010, AID492950]; assay type: functional
T9 sequence (P9WHJ3 whole entry): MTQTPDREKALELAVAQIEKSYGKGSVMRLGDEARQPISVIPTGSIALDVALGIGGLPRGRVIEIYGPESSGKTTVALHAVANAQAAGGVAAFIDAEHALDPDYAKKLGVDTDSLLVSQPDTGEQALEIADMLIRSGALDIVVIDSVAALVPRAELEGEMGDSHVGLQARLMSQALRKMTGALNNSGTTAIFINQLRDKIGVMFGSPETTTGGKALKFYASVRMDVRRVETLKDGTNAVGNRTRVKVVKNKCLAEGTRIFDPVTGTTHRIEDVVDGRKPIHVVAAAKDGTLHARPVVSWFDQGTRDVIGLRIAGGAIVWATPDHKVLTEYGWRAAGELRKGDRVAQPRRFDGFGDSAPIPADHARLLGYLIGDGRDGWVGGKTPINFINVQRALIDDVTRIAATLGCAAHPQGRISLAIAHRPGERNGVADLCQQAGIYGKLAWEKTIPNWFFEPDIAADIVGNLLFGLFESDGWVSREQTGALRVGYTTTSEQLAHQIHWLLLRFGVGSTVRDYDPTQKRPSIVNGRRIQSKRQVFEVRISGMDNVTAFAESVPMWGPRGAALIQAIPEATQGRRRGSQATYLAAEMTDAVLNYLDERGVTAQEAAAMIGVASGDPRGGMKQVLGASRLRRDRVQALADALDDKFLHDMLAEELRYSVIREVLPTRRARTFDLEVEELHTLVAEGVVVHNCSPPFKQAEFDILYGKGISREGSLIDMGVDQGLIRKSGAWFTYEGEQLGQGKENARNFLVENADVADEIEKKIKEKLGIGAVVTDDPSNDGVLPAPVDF

[17] = target: T10, Hepatocyte nuclear factor 4-alpha (Homo sapiens, UniProt P41235); assay type: functional, cell-based;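 note: biochemical luminescence-based dose-response counterscreen measuring inhibition of HNF4 dimerization, run alongside a screen for blockers of ABHD5–perilipin-5 interaction; split luciferase complementation of HNF4 fusion proteins in cell lysate measuring dimerization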
T10 sequence (P41235 whole entry): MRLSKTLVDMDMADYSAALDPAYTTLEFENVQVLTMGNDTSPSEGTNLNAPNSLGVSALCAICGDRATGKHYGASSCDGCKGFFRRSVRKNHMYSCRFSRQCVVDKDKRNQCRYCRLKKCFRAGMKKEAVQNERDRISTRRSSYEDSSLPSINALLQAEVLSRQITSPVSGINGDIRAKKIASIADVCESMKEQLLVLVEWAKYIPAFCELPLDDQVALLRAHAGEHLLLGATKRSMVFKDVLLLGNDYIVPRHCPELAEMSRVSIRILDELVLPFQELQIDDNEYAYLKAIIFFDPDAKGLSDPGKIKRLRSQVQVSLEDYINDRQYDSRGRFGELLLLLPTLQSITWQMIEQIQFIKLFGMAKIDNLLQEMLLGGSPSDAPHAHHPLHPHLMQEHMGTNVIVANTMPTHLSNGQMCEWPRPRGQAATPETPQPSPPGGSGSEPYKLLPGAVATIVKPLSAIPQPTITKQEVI

T1 sequence (P49327 whole entry, the tested form may be a part): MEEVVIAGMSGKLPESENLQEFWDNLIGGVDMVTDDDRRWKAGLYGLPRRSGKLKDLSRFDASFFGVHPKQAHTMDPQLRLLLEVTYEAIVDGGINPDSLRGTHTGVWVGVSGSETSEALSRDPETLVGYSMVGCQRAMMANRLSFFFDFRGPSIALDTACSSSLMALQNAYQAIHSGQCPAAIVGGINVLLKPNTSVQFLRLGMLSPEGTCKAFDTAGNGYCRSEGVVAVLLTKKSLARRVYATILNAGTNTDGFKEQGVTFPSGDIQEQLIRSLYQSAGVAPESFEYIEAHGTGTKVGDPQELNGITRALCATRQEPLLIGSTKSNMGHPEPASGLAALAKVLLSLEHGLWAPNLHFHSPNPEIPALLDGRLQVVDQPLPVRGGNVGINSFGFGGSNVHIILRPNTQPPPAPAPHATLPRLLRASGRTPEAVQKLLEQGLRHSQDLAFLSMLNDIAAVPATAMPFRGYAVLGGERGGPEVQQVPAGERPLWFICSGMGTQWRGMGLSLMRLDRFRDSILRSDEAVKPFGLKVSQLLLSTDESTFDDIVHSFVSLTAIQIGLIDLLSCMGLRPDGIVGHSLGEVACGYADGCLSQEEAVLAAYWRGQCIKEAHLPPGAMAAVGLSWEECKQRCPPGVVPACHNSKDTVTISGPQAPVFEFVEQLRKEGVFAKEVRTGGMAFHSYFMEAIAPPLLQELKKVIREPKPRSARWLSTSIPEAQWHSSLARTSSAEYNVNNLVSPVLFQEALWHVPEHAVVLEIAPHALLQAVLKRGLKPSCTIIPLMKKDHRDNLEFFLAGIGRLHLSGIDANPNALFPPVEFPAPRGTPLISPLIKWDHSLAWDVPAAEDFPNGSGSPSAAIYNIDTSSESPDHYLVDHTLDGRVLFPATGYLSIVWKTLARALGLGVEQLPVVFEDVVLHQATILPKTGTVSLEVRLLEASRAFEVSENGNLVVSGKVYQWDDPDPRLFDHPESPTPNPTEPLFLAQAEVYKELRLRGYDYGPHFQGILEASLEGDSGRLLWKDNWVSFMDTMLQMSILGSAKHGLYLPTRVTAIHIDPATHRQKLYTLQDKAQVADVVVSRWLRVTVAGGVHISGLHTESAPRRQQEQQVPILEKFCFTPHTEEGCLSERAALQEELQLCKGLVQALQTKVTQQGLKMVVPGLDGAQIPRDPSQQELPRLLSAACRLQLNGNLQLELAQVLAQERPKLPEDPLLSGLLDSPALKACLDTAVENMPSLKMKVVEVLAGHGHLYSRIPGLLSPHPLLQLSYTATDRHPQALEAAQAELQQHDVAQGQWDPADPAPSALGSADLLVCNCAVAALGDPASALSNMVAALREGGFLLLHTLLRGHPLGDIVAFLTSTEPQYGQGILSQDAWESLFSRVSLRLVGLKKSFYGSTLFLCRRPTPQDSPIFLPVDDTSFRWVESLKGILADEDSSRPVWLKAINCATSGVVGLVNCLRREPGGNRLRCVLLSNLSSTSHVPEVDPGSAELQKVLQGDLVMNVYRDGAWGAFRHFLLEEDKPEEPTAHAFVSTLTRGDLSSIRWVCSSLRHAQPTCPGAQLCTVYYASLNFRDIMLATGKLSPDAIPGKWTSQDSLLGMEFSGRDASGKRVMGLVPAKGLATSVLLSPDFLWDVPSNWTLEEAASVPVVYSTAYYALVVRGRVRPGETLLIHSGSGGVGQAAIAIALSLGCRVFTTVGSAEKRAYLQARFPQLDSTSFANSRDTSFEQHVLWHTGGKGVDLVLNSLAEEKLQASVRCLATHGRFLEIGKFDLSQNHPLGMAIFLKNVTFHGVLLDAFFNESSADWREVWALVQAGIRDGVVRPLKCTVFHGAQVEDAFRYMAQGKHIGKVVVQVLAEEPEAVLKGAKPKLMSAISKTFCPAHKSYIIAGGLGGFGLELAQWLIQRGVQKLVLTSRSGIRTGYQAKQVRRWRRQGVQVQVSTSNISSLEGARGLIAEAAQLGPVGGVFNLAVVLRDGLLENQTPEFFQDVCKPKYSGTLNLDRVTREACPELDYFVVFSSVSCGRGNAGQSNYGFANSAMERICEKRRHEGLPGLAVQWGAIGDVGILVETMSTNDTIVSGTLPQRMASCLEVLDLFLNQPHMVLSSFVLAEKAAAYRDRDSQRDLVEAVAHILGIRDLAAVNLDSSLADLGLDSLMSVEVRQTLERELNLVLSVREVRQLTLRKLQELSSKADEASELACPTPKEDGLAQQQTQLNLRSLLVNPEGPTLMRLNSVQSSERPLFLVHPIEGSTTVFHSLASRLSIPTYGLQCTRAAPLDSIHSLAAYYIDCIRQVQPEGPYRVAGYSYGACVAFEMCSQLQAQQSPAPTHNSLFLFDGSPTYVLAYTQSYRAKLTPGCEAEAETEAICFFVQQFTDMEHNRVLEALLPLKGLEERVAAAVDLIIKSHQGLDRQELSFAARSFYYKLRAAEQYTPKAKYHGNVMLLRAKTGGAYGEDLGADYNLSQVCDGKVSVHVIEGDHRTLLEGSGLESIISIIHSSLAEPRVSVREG
Chain of Beta-galactosidase (Q8VNN2 whole entry, the tested form may be a part): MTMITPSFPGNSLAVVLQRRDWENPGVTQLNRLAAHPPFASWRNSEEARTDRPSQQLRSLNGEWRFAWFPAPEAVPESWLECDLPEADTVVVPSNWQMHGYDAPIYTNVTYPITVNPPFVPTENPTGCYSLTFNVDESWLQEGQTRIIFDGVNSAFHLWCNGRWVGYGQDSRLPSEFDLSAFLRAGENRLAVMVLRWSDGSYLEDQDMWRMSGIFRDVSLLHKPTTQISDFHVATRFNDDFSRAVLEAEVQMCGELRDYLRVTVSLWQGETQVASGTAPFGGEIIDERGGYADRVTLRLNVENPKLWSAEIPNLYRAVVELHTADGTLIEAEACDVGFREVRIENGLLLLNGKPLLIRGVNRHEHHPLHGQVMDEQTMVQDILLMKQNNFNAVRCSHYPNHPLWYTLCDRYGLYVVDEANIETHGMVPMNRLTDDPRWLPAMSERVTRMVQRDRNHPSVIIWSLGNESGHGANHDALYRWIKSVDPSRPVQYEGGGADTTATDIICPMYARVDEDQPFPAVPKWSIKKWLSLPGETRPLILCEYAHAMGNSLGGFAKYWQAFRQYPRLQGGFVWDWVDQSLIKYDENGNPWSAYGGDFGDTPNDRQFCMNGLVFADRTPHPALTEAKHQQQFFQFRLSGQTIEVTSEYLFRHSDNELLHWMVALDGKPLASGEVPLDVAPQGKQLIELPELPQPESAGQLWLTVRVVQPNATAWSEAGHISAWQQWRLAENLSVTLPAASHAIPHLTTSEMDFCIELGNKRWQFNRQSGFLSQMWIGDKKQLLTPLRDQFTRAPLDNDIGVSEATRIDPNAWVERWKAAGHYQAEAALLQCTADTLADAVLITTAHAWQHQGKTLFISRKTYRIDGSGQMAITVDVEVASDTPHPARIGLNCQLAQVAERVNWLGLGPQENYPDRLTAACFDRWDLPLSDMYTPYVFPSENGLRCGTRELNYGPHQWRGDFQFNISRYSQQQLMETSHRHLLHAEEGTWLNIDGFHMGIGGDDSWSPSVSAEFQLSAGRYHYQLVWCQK
Chain of Cytochrome P450 2C9 (P11712 whole entry): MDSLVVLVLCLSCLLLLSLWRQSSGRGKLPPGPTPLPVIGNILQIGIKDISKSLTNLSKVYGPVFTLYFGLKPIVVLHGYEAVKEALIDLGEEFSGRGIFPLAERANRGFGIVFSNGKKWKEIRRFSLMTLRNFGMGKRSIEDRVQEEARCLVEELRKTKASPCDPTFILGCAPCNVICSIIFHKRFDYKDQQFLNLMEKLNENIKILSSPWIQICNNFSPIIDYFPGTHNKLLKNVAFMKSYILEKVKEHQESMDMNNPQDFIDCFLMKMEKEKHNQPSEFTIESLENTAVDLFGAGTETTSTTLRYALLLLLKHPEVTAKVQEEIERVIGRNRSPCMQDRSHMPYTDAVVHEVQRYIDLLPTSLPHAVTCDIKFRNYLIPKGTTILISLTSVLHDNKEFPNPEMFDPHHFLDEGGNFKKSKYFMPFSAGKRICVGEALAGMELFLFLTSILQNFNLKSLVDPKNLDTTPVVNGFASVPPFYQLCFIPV

With `O=C(COC(=O)c1cc([N+](=O)[O-])ccc1N1CCOCC1)Nc1ncc(Cl)cc1Cl` the IC50 [1] was 8.79 µM (active) and the IC50 [2] was 7.24 µM (active).

In the case of `CCCN(CC(=O)Nc1ccc(F)c(F)c1F)C(=O)c1cc([N+](=O)[O-])ccc1N1CCOCC1`, the IC50 [1] was 14.9 µM (active) and the IC50 [2] was 10.6 µM (active).

For `O=C(O)CCCCCNc1nc(-c2ccccc2)nc2ccccc12`, the IC50 [3] was 26.9 µM (inactive) and the IC50 [4] was 12 µM (active).

For `Cc1ccc(NC(=O)CCNS(=O)(=O)c2cc(Br)cnc2N)cc1Cl`, the IC50 [1] was 10.3 µM (active) and the IC50 [2] was 16.1 µM (active).

For `O=C(Nc1sc2c(c1C(=O)O)CCCCC2)c1ccccc1F`, the AC50 [5] was > 100 µM (inactive), the CC50 [6] was > 40 µM (active) and the IC50 [7] was 71 µM (active).

For `COc1ccc(/C=C/C(=O)NC(=S)Nc2cc([N+](=O)[O-])ccc2O)cc1OC`, the IC50 [3] was > 80 µM (inactive), the EC50 [8] was > 40 µM (inactive) and the IC50 [9] was 4.85 µM (active). For the same compound, the IC50 [4] was 17.8 µM (active) and the IC50 [10] was > 40 µM (not active).

With `O=C(c1ccc(CNc2c(NC3CCCCC3)c(=O)c2=O)cc1)N1CCc2ccccc21` the AC50 [11] was 0.583 µM (active).

With `CCNC(=O)C[C@H]1CC[C@@H]2[C@@H](COc3ccc(NC(=O)Nc4cccc(Cl)c4)cc3C(=O)N2C)O1` the AC50 [11] was 42 µM (active).

In the case of `COCC(=O)N(C)C[C@H]1Oc2cc(-c3ccccc3F)ccc2S(=O)(=O)N([C@H](C)CO)C[C@H]1C`, the AC50 [11] was 2.56 µM (active).

For `CCN(CC)CCOc1ccc(/C(=C(\Cl)c2ccccc2)c2ccccc2)cc1.O=C(O)CC(O)(CC(=O)O)C(=O)O` [CLOMIPHENE CITRATE], the AC50 [12] was “inconclusive”, the IC50 [13] was > 20 µM (inactive) and the AC50 [14] was 997 nM (active). The AC50 [15] was 3.79 µM (active), the EC50 [16] was 12.1 µM (active) and the IC50 [17] was 10.8 µM (inactive).
